The values that follow come from US20100279976A1, “USE OF ARTEMISININ AND ITS DERIVATIVES IN CANCER THERAPY” (SHANGHAI INSTITUTES FOR BIOLOGICAL SCIENCES, CAS, priority 2009, published 2010).

Usually IC50 stands for the midpoint of a concentration-inhibition curve. One may read the IC80 as the concentration needed for an effect of 80%. The low end stands for an effect from little substance, the high end for a need for much substance.

In data set [1] the test system is HepG2 xenograft tumors. The experiment in a line: HepG2 xenograft model in nude mice. Type of data set: in vivo. The note with it: HepG2 xenograft, gemcitabine alone 80 mg/kg i.p. days 7, 11, 15. Here is the method: Female athymic nude mice (nu/nu; 4-6 wk of age) may be obtained from Shanghai Slac Laboratory Animal Co. Ltd. All animals may be fed with commercial diet and water ad libitum. The human HCC xenograft models in mice may be as follows. Briefly, HepG2 and Hep3B cells may be re-suspended in serum-free DMEM with Matrigel basement membrane matrix at a 5:1 ratio. The cell suspension may then be injected (7×10^6 cells; total volume, 0.2 mL) into the left inguinal area of the BALB/c nude mice. The animals may be monitored for activity and physical condition everyday, and the determination of body weight and measurement of tumor mass may be done every 3 d. Tumor mass may be determined by caliper measurement in two perpendicular diameters of the implant and calculated using the formula ½a×b^2, where a stands for the long diameter and b is the short diameter. The animal use and care protocol is approved by the Institutional Review Board of the Institute for Nutritional Sciences, Chinese Academy of Sciences.
Nude mice bearing HepG2 and Hep3B xenografts, randomly divided into various treatment and control groups (five mice per group), may be treated orally with either ART or DHA suspended in 5% sesame oil+95% saline, at a dose of 50 or 100 mg/kg/d, or a combination of ART or DHA with gemcitabine or with saline (as controls). In the mice receiving combination therapy, 80 mg/kg gemcitabine, representing one fifth of the reported most tolerated dose in mice, may be administered i.p. on days 7, 11, and 15 to avoid possible side effects and to illustrate potential chemo-sensitization effects in this combination regimen.

Data set [2] concerns HCC. The note with it: gemcitabine monotherapy, HCC patients; cited from earlier work.
Data set [3] concerns BEL-7404 hepatoma cells (p53 mutant). Kind of data set: MTT cell viability assay, BEL-7404. Format: cell-based. The note with it: Homo sapiens, BEL-7404 (p53 mutant), 48 h. Here is the method:
(§1) The effects of ART derivatives on the viability of the aforementioned cells may be determined using the MTT assay. Briefly, 2,000 cells per well were plated in triplicate in 96-well plates. After a 24-h incubation, the cells may be treated with varying concentrations of ART derivatives (0, 1, 5, 10, 25, 50, and 100 μmol/L) for 48 h. The MTT assay may be performed according to the manufacture's instruction and the resultant formazan crystals may be dissolved in DMSO (100 μL). The absorbance may be then recorded at 540 nm. The effects of ART derivatives on cell viability may be assessed by comparing the percent cell viability of the treated cells with the vehicle (DMSO)-treated control cells, which may be arbitrarily assigned at 100% viability. The experiment may be repeated thrice under the same conditions.

The subject of data set [4] is HepG2 hepatoma cells (p53 wild-type). The experiment in a line: MTT cell viability assay, HepG2. Particulars: Homo sapiens, 48 h. Type of data set: cell-based. As to the method: as §1
In data set [5] the test system is OVCAR-3 ovarian carcinoma cells. The experiment in a line: MTT cell viability assay, OVCAR-3. Type of data set: cell-based. Particulars: Homo sapiens, OVCAR-3, 48 hrs.
Excerpt: (§2) Human ovarian IOSE144 (immortalized non-tumorigenic human ovarian surface epithelial cells) and ovarian carcinoma (A2780 and OVCAR-3) cells that may be obtained from the American Type Culture Collection (ATCC, Manassas, Va.) are gifts from Dr. Jing Fang (Institute for Nutritional Sciences, Shanghai, China). All cells may be cultured according to the ATCC instructions. The compounds (ARS, ART, ARM and DHA) may be dissolved in DMSO (<0.1%, final concentration).
as §1
For orientation: Tetrazolium dyes change colour on reduction, which living cells bring about.

Data set [6] relates to A2780 ovarian carcinoma cells. Kind of data set: MTT cell viability assay, A2780. Type of data set: cell-based. Particulars: Homo sapiens, A2780, 48 hrs.
Excerpt: as §2, §1

Data set [7] has as its system Hep3B hepatoma cells (p53 null). Kind of data set: MTT cell viability assay, Hep3B. Type of data set: cell-based. The note with it: Homo sapiens, 48 h. As to the method: as §1
Data set [8] has as its system IOSE144 immortalized non-tumorigenic ovarian surface epithelial cells. Kind of data set: MTT cell viability assay, IOSE144. The note with it: Homo sapiens, IOSE-144, IOSE144, 48 hrs. Format: cell-based.
Excerpt: as §2, §1

The subject of data set [9] is Huh-7 hepatoma cells (p53 mutant). The experiment in a line: MTT cell viability assay, Huh-7. Particulars: Homo sapiens, Huh-7 (p53 mutant), 48 h. Format: cell-based. As to the method: as §1
Data set [10] relates to four hepatoma cell lines (HepG2, Hep3B, Huh-7, BEL-7404). Kind of data set: MTT assay, mean over four hepatoma cell lines. Type of data set: cell-based. The note with it: Homo sapiens, mean of HepG2, Hep3B, read-out: overall mean IC50 in the four hepatoma cell lines. As to the method: as §1
Data set [11] relates to 7702 normal human liver cells. The experiment in a line: MTT cell viability assay, normal liver cells. Format: cell-based. Particulars: Homo sapiens, 7702 cells, 48 h; for IC20: read-out: IC20 (concentration that reduces growth by 20%). As to the method: as §1
The test system of data set [12] is OVCAR-3 cells. The experiment in a line: Annexin V-FITC apoptosis assay, OVCAR-3. Format: cell-based, human. Particulars: OVCAR-3, 24 hrs; DHA 1 μM, CBP 500 μM, alone or combined. Here is the method: ART- and DHA-induced apoptosis alone or in combination with gemcitabine in HepG2 and Hep3B cells or in combination with carboplatin in ovarian cancer cells may be determined by flow cytometry using the Annexin V-FITC Apoptosis Detection kit following the manufacturer's instructions. […] The cells may then be harvested, washed in PBS, and incubated with Annexin V and propidium iodide for staining in binding buffer at room temperature for 10 min in the dark. The stained cells may be analyzed using the FACSAria instrument.

Data set [13] deals with OVCAR-3 xenograft tumors. The experiment in a line: OVCAR-3 xenograft model in nude mice. Type of data set: in vivo. The note with it: CBP only, single dose 120 mg/kg on day 0. As to the method: (§3) Four to six week old female athymic nude mice (BALB/c, nu/nu) may be purchased from Shanghai Experimental Animal Center (Shanghai, China). Animal studies are approved by the Institute for Nutritional Sciences. The tumor xenograft model may be established as follows. Briefly, A2780 and OVCAR-3 cells may be harvested and re-suspended in serum-free RPMI 1640 medium containing 20% (v/v) Matrigel (BD Biosciences, Bedford, Mass., USA). Aliquots of cells (˜5×10^6 cells/0.2 ml) may be injected subcutaneously into the left inguinal area of the mice. The tumor growth and body weight of the mice may be monitored every other day. Tumor mass may be determined. Mice bearing palpable tumors (˜70 mg) may be randomly divided into treatment and control groups n=5 mice/group). CBP may be dissolved in saline, and DHA may be dissolved in cremophor EL:ethanol:saline (5:5:90, v/v/v). DHA may be administered via i.p. injection at doses of 10 and 25 mg/kg/5 days/week for 3 weeks) alone or combined with CBP (at a single dose of 120 mg/kg, once on day 0). The control group receives saline only. Mice may be killed on day 18. Tumors may be carefully excised, trimmed of extraneous fat or connective tissue, and homogenized in RIPA buffer (100 mg tumor tissue/1 ml RIPA) and prepared for immunoblotting analysis as described above.

Data set [14] relates to A2780 xenograft tumors. Type of data set: in vivo. As to the method:
as §3, with “Briefly, A2780 and OVCAR-3 cells may be harvested and re-suspended in serum-free RPMI 1640 medium containing 20% (v/v) Matrigel (BD Biosciences, Bedford, Mass., USA).” left out

For the compound `Nc1ccn([C@@H]2O[C@H](CO)[C@@H](O)C2(F)F)c(=O)n1` [gemcitabine], in [1], the tumor growth inhibition is reported as 34.9%. Moreover, the median survival time entry in data set [2] is given as “up to 34 weeks”.
Take `CO[C@H]1O[C@@H]2O[C@@]3(C)CC[C@H]4[C@H](C)CC[C@@H]([C@H]1C)[C@@]24OO3` [ARM, artemether]: the IC20 turned out to be 2.4 µM in data set [3]; 2.6 µM in data set [4]; 2.08 µM in [5]; 2.08 µM in data set [6]; 2.4 µM in data set [7]; 98 µM in [8]. Moreover, the values for the IC20 in data set [9] and in data set [11] were 1.2 µM and 7.9 µM, respectively. The 50% inhibitory concentration (IC50) in [3] was 31.8 µM; in [4], 54.8 µM; in data set [5], 38.8 µM; in data set [6] it was 53.9 µM; in data set [7], 51.5 µM; in data set [8], over 500 µM. The IC50 stood at 31.4 µM in data set [9], 42.3 µM in data set [10] and 492 µM in data set [11]. Further, the 80% effect concentration (IC80) in [3], in [4], in data set [5], in data set [6], in data set [7] and in data set [8] was over 500 µM each time. Further, the IC80 in [9] and in [11] was over 500 µM throughout.
Turning to `C[C@H]1[C@H](OC(=O)CCC(=O)O)O[C@@H]2O[C@@]3(C)CC[C@H]4[C@H](C)CC[C@@H]1[C@@]24OO3` [ARS, artesunate], the IC20 in data set [3] is 1 µM; in data set [4] it was 1.3 µM; in [5], 3.93 µM; in data set [6], 7.68 µM; in data set [7], 1.5 µM; in [8], over 500 µM. Moreover, the IC20 in data set [9] is 0.6 µM; in data set [11], 7.3 µM. The IC50 is 15 µM in data set [3]; 20.5 µM in data set [4]; 343 µM in data set [5]; over 500 µM in [6]; 39.4 µM in data set [7]; over 500 µM in data set [8]. Besides, the IC50 is 9.22 µM in data set [9], 21 µM in data set [10] and over 500 µM in [11]. Moreover, the IC80 in [3] is 215 µM; in data set [4] it was 338 µM; in data set [5] it was over 500 µM; in [6], over 500 µM; in data set [7], over 500 µM; in data set [8] it was over 500 µM. In addition, the 80% effect concentration (IC80) is 146 µM in data set [9] and over 500 µM in [11].
`N.N.O=C([O-])C1(C(=O)[O-])CCC1.[Pt+2]` [CBP, carboplatin]: the “rate of apoptosis (control regarded as 100%)” value in data set [12] was 528%. In addition, the tumor growth inhibition stood at 46% in [13] and 56% in [14] (A2780 xenograft, CBP only, single dose 120 mg/kg on day 0). The “host toxicity based on observation of body weight” value in [14] (mice bearing A2780 or OVCAR-3 xenografts) was “slight weight loss”.
